Experiments:
[1] = target: human orexin 2 receptors (Homo sapiens (Human), UniProt O43614); test: Calcium Accumulation in Cells (FLIPR), antagonism of orexin A; type: cell-based; conditions: for inhibition at 10 µM: measured at a concentration of 10 μM of compound, read-out: FLIPR hOx2R % inhibition value; for Ki: antagonism of orexin A, Cheng-Prusoff corrected, read-out: FLIPR hOx2R Ki
Protocol: (§1) Calcium Accumulation in Cells (FLIPR):
Cells expressing human orexin 1 or human orexin 2 receptors, were seeded at 8,000 cells/well in 384 well black-walled clear bottom, poly-D-lysine coated plates.
On the day of the experiment, the cells seeded in black plates were treated with assay buffer containing the Ca^2+ sensitive fluorescent dye Fluo4-AM (2 μM), and probenecid (0.1 mM). After 1 h plates were washed twice with, and resuspended in, assay buffer containing probenecid (0.1 mM) using a multi plate washer. […] Fluorescence measurements were then continued every 1 S for 120 S followed by every 4 S for 240 S.
(§2) The measurements were typically made in two sequences:
(§3) In the first round, compounds of formula (I) or (I′) were tested alone, to detect possible agonist activity. Compounds of formula I or I′ were tested usually in a concentration range from 10^−9 M to 10^−5 M.
(§4) In the second round, performed one hour later (to allow for equilibration), Orexin A was tested either in the absence (calibration curves, Orexin A agonist controls) or in the presence of compounds of formula (I) or (I′) to determine antagonism.

[2] = target: human orexin 1 receptors (Homo sapiens (Human), UniProt O43613); test: as above; type: cell-based; conditions: for inhibition at 10 µM: measured at a concentration of 10 μM of compound, read-out: FLIPR hOx1R % inhibition value; for Ki: antagonism of orexin A, Cheng-Prusoff corrected, read-out: FLIPR hOx1R Ki
Protocol: as §1
Cells expressing human orexin 1 or human orexin 2 receptors, were seeded at 8,000 cells/well in 384 well black-walled clear bottom, poly-D-lysine coated plates. After 24 h, the medium was removed and cells were washed once with phosphate buffered saline and serum-deprived overnight in assay buffer (130 mM NaCl, 5.4 mM KCl, 1.8 mM CaCl2, 0.8 mM MgSO4, 0.9 mM NaH2PO4, 25 mM glucose, 20 mM HEPES, pH 7.4) containing bovine serum albumin (1% w/v).
On the day of the experiment, the cells seeded in black plates were treated with assay buffer containing the Ca^2+ sensitive fluorescent dye Fluo4-AM (2 μM), and probenecid (0.1 mM). After 1 h plates were washed twice with, and resuspended in, assay buffer containing probenecid (0.1 mM) using a multi plate washer. The plates were placed into a FLIPR II (Fluorometric Imaging Plate Reader, Molecular Devices, Sunnyvale, Calif., USA) and baseline fluorescence (fluorescence light units, FLU) was measured (5 measurements, 2 S each; laser excitation 488 nm at 0.6-1 W, CCD camera exposure 0.4 s) before addition of buffer alone (basal) or containing test compounds (either compound of formula (I) or (I′) alone, agonist alone or agonist in the presence of various concentrations of compounds of formula (I) or (I′)). Fluorescence measurements were then continued every 1 S for 120 S followed by every 4 S for 240 S.
as §2, §3, §4

human orexin 2 receptors, sequence (O43614 whole entry): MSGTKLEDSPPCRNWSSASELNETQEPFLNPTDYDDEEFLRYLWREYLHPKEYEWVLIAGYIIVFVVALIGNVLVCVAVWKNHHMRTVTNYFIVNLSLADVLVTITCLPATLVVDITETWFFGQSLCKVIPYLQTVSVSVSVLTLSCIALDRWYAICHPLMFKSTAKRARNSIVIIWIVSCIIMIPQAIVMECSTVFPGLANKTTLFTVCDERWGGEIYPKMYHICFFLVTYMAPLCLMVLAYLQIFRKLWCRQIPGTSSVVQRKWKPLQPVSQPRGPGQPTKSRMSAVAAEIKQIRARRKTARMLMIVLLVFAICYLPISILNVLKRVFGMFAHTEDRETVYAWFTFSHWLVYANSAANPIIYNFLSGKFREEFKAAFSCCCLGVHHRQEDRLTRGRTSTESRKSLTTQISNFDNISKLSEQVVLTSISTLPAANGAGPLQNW
human orexin 1 receptors, sequence (O43613 whole entry): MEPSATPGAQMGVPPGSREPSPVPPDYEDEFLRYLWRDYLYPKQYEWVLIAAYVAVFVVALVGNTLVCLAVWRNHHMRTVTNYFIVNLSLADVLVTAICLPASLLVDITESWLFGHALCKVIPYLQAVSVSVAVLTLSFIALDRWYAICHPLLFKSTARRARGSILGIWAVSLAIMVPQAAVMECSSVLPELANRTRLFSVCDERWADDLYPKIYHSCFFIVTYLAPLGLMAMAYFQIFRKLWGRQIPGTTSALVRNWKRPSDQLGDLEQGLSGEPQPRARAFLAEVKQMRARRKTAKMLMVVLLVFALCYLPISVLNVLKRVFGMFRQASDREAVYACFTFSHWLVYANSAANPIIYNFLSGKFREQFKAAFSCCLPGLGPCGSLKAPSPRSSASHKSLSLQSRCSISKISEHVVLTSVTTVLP

| Compound | inhibition at 10 µM [1] | inhibition at 10 µM [2] | Ki [2] | Ki [1] |
| --- | --- | --- | --- | --- |
| CCn1cnnc1C(C)NC(=O)COc1cc(C(F)(F)F)c2c(-c3ccccc3)nn(C)c2n1 (centres unmarked) [Example 1.35, N-(1-(4-ethyl-4H-1,2,4-triazol-3-yl)ethyl)-2-(1-methyl-3-phenyl-4-(trifluoromethyl)-1H-pyrazolo[3,4-b]pyridin-6-yloxy)acetamide] | 22% | 22% | – | – |
| CC(C)c1noc(C(C)NC(=O)COc2cc(C(F)(F)F)c3c(-c4ccccc4)nn(C)c3n2)n1 (centres unmarked) [Example 1.36, N-(1-(3-isopropyl-1,2,4-oxadiazol-5-yl)ethyl)-2-(1-methyl-3-phenyl-4-(trifluoromethyl)-1H-pyrazolo[3,4-b]pyridin-6-yloxy)acetamide] | 30% | – | 3360 nM | – |
| C[C@H](NC(=O)COc1cc(C(F)(F)F)c2c(C(C)(C)C)nn(C)c2n1)c1ccccc1 [Example 1.37, (S)-2-(3-tert-butyl-1-methyl-4-(trifluoromethyl)-1H-pyrazolo[3,4-b]pyridin-6-yloxy)-N-(1-phenylethyl)acetamide] | – | – | 1950 nM | 298 nM |
| Cc1nc(C(C)NC(=O)COc2cc(C(F)(F)F)c3c(-c4ccccc4)nn(C)c3n2)c(C)s1 (centres unmarked) [Example 1.40, N-(1-(2,5-dimethylthiazol-4-yl)ethyl)-2-(1-methyl-3-phenyl-4-(trifluoromethyl)-1H-pyrazolo[3,4-b]pyridin-6-yloxy)acetamide] | – | 37% | – | 2900 nM |
| Cn1nc(-c2ccccc2)c2c(C(F)(F)F)cc(OCC(=O)NCc3ccccc3F)nc21 [Example 1.42, N-(2-fluorobenzyl)-2-(1-methyl-3-phenyl-4-(trifluoromethyl)-1H-pyrazolo[3,4-b]pyridin-6-yloxy)acetamide] | – | – | 1590 nM | 890 nM |
| Cn1nc(-c2ccccc2)c2c(C(F)(F)F)cc(OCC(=O)NCc3cccc(Cl)c3)nc21 [Example 1.43, N-(3-chlorobenzyl)-2-(1-methyl-3-phenyl-4-(trifluoromethyl)-1H-pyrazolo[3,4-b]pyridin-6-yloxy)acetamide] | – | 24% | – | 2060 nM |
| COc1ccccc1C(C)NC(=O)COc1cc(C(F)(F)F)c2c(-c3ccccc3)nn(C)c2n1 (centres unmarked) [Example 1.44, N-(1-(2-methoxyphenyl)ethyl)-2-(1-methyl-3-phenyl-4-(trifluoromethyl)-1H-pyrazolo[3,4-b]pyridin-6-yloxy)acetamide] | – | – | 274 nM | 158 nM |
| C[C@H](NC(=O)COc1cc(C2CC2)c2c(-c3ccccc3)nn(C)c2n1)c1ccccc1 [Example 1.47, (S)-2-(4-cyclopropyl-1-methyl-3-phenyl-1H-pyrazolo[3,4-b]pyridin-6-yloxy)-N-(1-phenylethyl)acetamide] | – | – | 441 nM | 561 nM |
| C[C@H](NC(=O)COc1cc(C(F)(F)F)c2c(C3CC3)nn(C)c2n1)c1ccccc1 [Example 1.50, (S)-2-(3-cyclopropyl-1-methyl-4-(trifluoromethyl)-1H-pyrazolo[3,4-b]pyridin-6-yloxy)-N-(1-phenylethyl)acetamide] | – | – | 730 nM | 168 nM |
| C[C@H](NC(=O)COc1cc(C(F)(F)F)c2c(C3CCCCC3)nn(C)c2n1)c1ccccc1 [Example 1.51, (S)-2-(3-cyclohexyl-1-methyl-4-(trifluoromethyl)-1H-pyrazolo[3,4-b]pyridin-6-yloxy)-N-(1-phenylethyl)acetamide] | – | – | 471 nM | 364 nM |
| C[C@H](NC(=O)COc1cc(C(F)(F)F)c2c(C3CCCC3)nn(C)c2n1)c1ccccc1 [Example 1.52, (S)-2-(3-cyclopentyl-1-methyl-4-(trifluoromethyl)-1H-pyrazolo[3,4-b]pyridin-6-yloxy)-N-(1-phenylethyl)acetamide] | – | – | 1170 nM | 868 nM |
| Cn1nc(-c2ccccc2)c2c(C(F)(F)F)cc(OCC(=O)NC3CC3)nc21 [Example 1.53, N-cyclopropyl-2-(1-methyl-3-phenyl-4-(trifluoromethyl)-1H-pyrazolo[3,4-b]pyridin-6-yloxy)acetamide] | 36% | 14% | – | – |
| Cn1nc(-c2ccccc2)c2c(C(F)(F)F)cc(OCC(=O)NC3CCC3)nc21 [Example 1.54, N-cyclobutyl-2-(1-methyl-3-phenyl-4-(trifluoromethyl)-1H-pyrazolo[3,4-b]pyridin-6-yloxy)acetamide] | 42% | 25% | – | – |
| CCCNC(=O)COc1cc(C(F)(F)F)c2c(-c3ccccc3)nn(C)c2n1 [Example 1.55, 2-(1-methyl-3-phenyl-4-(trifluoromethyl)-1H-pyrazolo[3,4-b]pyridin-6-yloxy)-N-propylacetamide] | – | 23% | – | 767 nM |
| Cn1nc(-c2ccccc2)c2c(C(F)(F)F)cc(OCC(=O)NC3CCCc4ccccc43)nc21 (centres unmarked) [Example 1.56, 2-(1-methyl-3-phenyl-4-(trifluoromethyl)-1H-pyrazolo[3,4-b]pyridin-6-yloxy)-N-(1,2,3,4-tetrahydronaphthalen-1-yl)acetamide] | – | – | 378 nM | 165 nM |
| C[C@H](NC(=O)COc1cc(C(F)(F)F)c2c(-c3cccc(Cl)c3)nn(C)c2n1)c1ccccc1 [Example 1.57, (S)-2-(3-(3-chlorophenyl)-1-methyl-4-(trifluoromethyl)-1H-pyrazolo[3,4-b]pyridin-6-yloxy)-N-(1-phenylethyl)acetamide] | – | – | 66 nM | 106 nM |
| COc1ccc([C@@H](C)NC(=O)COc2cc(C(F)(F)F)c3c(-c4ccccc4)nn(C)c3n2)cc1 [Example 1.59, (R)-N-(1-(4-methoxyphenyl)ethyl)-2-(1-methyl-3-phenyl-4-(trifluoromethyl)-1H-pyrazolo[3,4-b]pyridin-6-yloxy)acetamide] | – | – | 2290 nM | 949 nM |
| Cc1cc(OCC(=O)NC(C)c2ccncc2)nc2c1c(-c1ccccc1)nn2C (centres unmarked) [Example 1.63, 2-(1,4-dimethyl-3-phenyl-1H-pyrazolo[3,4-b]pyridin-6-yloxy)-N-(1-(pyridin-4-yl)ethyl)acetamide] | 34% | 27% | – | – |
| Cc1cc(OCC(=O)NC(C)c2cccnc2)nc2c1c(-c1ccccc1)nn2C (centres unmarked) [Example 1.64, 2-(1,4-dimethyl-3-phenyl-1H-pyrazolo[3,4-b]pyridin-6-yloxy)-N-(1-(pyridin-3-yl)ethyl)acetamide] | 39% | 26% | – | – |
| Cc1cc(OCC(=O)NC(C)c2ccccn2)nc2c1c(-c1ccccc1)nn2C (centres unmarked) [Example 1.65, 2-(1,4-dimethyl-3-phenyl-1H-pyrazolo[3,4-b]pyridin-6-yloxy)-N-(1-(pyridin-2-yl)ethyl)acetamide] | 30% | 26% | – | – |
| Cc1cccc(CNC(=O)COc2cc(C(F)(F)F)c3c(-c4ccccc4)nn(C)c3n2)c1 [Example 1.66, 2-(1-methyl-3-phenyl-4-(trifluoromethyl)-1H-pyrazolo[3,4-b]pyridin-6-yloxy)-N-(3-methylbenzyl)acetamide] | 41% | 23% | – | – |
| CC(C)CCNC(=O)COc1cc(C(F)(F)F)c2c(-c3ccccc3)nn(C)c2n1 [Example 1.68, N-isopentyl-2-(1-methyl-3-phenyl-4-(trifluoromethyl)-1H-pyrazolo[3,4-b]pyridin-6-yloxy)acetamide] | 16% | < 10% | – | – |
| Cc1cc(OCC(=O)N[C@@H](C)c2ccccc2)nc2c1c(C1CC1)nn2C [Example 1.69, (S)-2-(3-cyclopropyl-1,4-dimethyl-1H-pyrazolo[3,4-b]pyridin-6-yloxy)-N-(1-phenylethyl)acetamide] | – | – | 1010 nM | 938 nM |
| Cc1nn(C)c(C)c1C(C)NC(=O)COc1cc(C)c2c(C3CC3)nn(C)c2n1 (centres unmarked) [Example 1.72, 2-(3-cyclopropyl-1,4-dimethyl-1H-pyrazolo[3,4-b]pyridin-6-yloxy)-N-(1-(1,3,5-trimethyl-1H-pyrazol-4-yl)ethyl)acetamide] | – | – | 2120 nM | 1230 nM |
| Cc1cc(OCC(=O)N[C@H]2CCc3ccccc32)nc2c1c(C1CC1)nn2C [Example 1.75, (S)-2-(3-cyclopropyl-1,4-dimethyl-1H-pyrazolo[3,4-b]pyridin-6-yloxy)-N-(2,3-dihydro-1H-inden-1-yl)acetamide] | – | 27% | – | 809 nM |

Reference: US8742106B2 (Novartis AG, priority 2009, dated 2014)
